Experiments:
[1] = target: Vps34 (PIK3C3 lipid kinase) (Homo sapiens, UniProt Q8NEB9); assay: Biochemical Vps34 lipid kinase assay (ADP-Glo); details: for IC50: serial half-log dilution 10 μM to 0.3 nM, pIC50 = -log IC50 (M); for VPS34_1microM_% of cntrl / remaining activity at 1 µM: single dose 1 μM compound, residual activity compared to control (DMSO); for remaining activity at 1 µM: 1 h, read-out: VPS34_1microM_% of cntrl
Protocol: Biochemical Vps34 Lipid Kinase Assay
A non-radiometric kinase assay (ADP-Glo™ Assay, Promega, Madison, Wi, USA) was used for measuring the kinase activity of the PIK3C3 lipid kinase. All kinase assays were performed in 96-well half-area microtiter plates in a 25 μl reaction volume. The reaction cocktail was pipetted in 3 steps in the following order: • 10 μl of ATP solution (in assay buffer, see below) • 5 μl of test sample in 5% DMSO 10 μl of enzyme/substrate mixture
All lipid kinase assays contained 50 mM HEPES (4-(2-hydroxyethyl)-1-piperazineethanesulfonic acid)-NaOH, pH 7.5, 1 mM EGTA ((ethylene glycol tetraacetic acid), 100 mM NaCl, 0.03% CHAPS (3-[(3-Cholamidopropyl)dimethylammonio]-1-propanesulfonate), 2 mM DTT (Dithiothreitol), 20 μM ATP (corresponding to the apparent ATP-Km), kinase (7.6 nM) and substrate (50 μM). The assay for PIK3C3 additionally contained 3 mM MnCl2.
The reaction cocktails were incubated at 30° C. for 60 minutes. The reaction was stopped with 25 μl ADP-Go™ reagent per well. Plates were incubated for 40 minutes at room temperature, followed by addition of 50 μl kinase detection reagent per well and incubation for 60 minutes at room temperature. Signal was determined with a microplate luminescence reader (Victor, Perkin Elmer). The assay was either performed using a single dose of compound (1 μM final concentration in the assay reaction) with resulting data expressed as residual activity compared to control (DMSO), or using a serial (half-log) dilution of compounds starting at 10 μM and down to 0.3 nM (final concentrations in the assay) with data expressed as the pIC50.
(§1) (pIC50 is −log IC50 where IC50 represents the concentration expressed in M at which the test compound gives 50% inhibition)

EF2K [2] = target: T1, EF2K (Homo sapiens, UniProt O00418); assay: Biochemical EF2K lysate-based kinase assay (AlphaLISA p-eEF2 Thr56); details: pIC50 = -log IC50 (M), read-out: eEF2K_C_alphalisa pIC50 (converted)
T1 construct: host or cells: LN-229 cell lysate
T1 sequence (O00418 1-725): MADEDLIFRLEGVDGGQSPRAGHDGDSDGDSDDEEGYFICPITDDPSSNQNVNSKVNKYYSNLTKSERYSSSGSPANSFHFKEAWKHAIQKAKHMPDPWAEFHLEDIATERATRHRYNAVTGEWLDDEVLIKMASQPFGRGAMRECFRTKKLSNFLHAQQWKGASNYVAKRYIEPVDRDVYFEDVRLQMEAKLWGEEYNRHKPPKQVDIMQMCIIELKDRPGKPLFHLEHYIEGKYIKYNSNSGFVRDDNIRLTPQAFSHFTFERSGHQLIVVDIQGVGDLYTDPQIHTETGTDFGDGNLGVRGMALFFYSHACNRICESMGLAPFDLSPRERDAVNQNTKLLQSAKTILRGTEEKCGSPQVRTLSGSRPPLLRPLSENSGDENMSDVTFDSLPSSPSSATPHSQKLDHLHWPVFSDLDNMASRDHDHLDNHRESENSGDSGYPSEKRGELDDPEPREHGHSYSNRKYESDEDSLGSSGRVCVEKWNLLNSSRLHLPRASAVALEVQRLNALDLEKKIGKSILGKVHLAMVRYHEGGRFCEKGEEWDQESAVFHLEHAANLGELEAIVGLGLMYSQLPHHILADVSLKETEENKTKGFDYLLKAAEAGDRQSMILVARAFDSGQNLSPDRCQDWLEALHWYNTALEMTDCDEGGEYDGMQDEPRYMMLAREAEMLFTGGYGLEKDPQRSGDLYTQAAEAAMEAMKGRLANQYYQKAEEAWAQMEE
Text: Biochemical EF2K Lysate-Based Kinase Assay
LN-229 cells were purchased from ATCC (CRL-2611); these are glioblastoma cells. Cell lysates from LN229 were used in this kinase assay to provide both the kinase and the substrate (EF2). The AlphaLISA p-eEF2 (Thr56) detection assay was developed using a sandwich assay format with two specific antibodies recognizing different epitopes of the target, including one antibody against the phosphorylation site of interest. One anti-eEF2 antibody was conjugated onto AlphaLISA Acceptor beads, while the second antibody was biotinylated and captured by streptavidin coated Donor beads.
Compound was mixed with LN-229 cell lysates in the presence of a kinase buffer (e.g. HEPES) at a pH of 6.6, containing 10 mM Mg^2+ (e.g. magnesium acetate) and 10 mM adenosine-tri-phosphate (ATP) and incubated at room temperature for 15 minutes. The kinase reaction was stopped with excess ethylenediaminetetraacetic acid disodium salt and the biotinylated-anti phospho eEF2 antibody (3 nM) was added for 1 hour. Then the anti-EF2 acceptor beads (10 μg/ml) as well as the streptavidin coated donor beads (20 μg/ml) were added for 1 hour, and the AlphaLISA signal was measured in an Envision instrument once, left overnight, and measured again for the final read.
as §1

EF2K [3] = target: T1, EF2K; assay: EF2K cell-based assay (P-EF2 AlphaLISA, 2-deoxyglucose stimulated MCF10A cells); details: 2.5 mM 2-deoxyglucose stimulated, P-EF2 Thr56, pIC50 = -log IC50 (M); for IC50: read-out: eEF2K_C_PThr56 pIC50 (converted)
Protocol: In this assay, 2.5 mM 2-deoxyglucose was used to deplete intracellular ATP and activate 5′ adenosine monophosphate-activated protein kinase (AMPK) in the immortalized epithelial breast cell lines, MCF10A. MCF 10A cells were purchased from ATCC (CRL-10317).
MCF10A cells are seeded at a density of 1.25×10^5 Cells/ml at 100 μl/well in a 96-well plate and incubated for 24 hours (37° C., 5% CO2). Compound is added for 1 hour, and cell are stimulated with 2.5 mM of 2-deoxy-glucose for 4 hours. Medium is then removed, and cells are lysed in an ice-cold buffer M-PER (Thermo Scientific, 78501), containing protease and phosphatase inhibitors. P-EF2 levels are determined in these lysates using the P-EF2 AlphaLISA described above.
as §1

Sequence of Vps34 (PIK3C3 lipid kinase) (Q8NEB9 whole entry, species assumed): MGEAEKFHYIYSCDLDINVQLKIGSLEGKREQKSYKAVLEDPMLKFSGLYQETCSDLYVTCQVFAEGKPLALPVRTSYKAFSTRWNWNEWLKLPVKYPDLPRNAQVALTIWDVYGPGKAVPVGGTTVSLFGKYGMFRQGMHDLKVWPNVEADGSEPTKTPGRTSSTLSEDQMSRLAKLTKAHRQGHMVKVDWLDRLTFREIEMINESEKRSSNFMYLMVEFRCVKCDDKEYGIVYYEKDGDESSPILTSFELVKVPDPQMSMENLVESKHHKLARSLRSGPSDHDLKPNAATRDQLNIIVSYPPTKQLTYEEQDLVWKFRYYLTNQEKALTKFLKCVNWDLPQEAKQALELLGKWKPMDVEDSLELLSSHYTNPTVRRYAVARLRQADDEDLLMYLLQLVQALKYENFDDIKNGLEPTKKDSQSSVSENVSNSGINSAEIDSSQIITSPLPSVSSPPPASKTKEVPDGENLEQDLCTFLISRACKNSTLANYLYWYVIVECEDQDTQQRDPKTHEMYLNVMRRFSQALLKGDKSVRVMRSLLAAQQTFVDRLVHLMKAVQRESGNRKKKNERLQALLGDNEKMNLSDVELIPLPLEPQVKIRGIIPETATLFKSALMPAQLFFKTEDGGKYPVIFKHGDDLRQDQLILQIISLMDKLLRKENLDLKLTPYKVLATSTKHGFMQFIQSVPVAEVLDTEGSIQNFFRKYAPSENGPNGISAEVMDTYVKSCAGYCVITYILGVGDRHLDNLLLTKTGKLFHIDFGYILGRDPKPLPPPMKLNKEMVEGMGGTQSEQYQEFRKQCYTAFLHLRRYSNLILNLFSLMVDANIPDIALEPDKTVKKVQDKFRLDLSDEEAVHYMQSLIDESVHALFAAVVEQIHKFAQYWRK

| Compound | IC50 [1] [M] | VPS34_1microM_% of cntrl [1] | IC50 (EF2K [2]) [M] | IC50 (EF2K [3]) [M] | remaining activity at 1 µM [1] [%] | eEF2K_C_PThr56 pIC50 (EF2K [3]) |
| --- | --- | --- | --- | --- | --- | --- |
| O=C1CN2CCN(CC2)Cc2cccc(c2)Nc2nccc(n2)-c2ccc(nc2)NCC(O)CN1 (single isomer, unassigned) [Compound 24] | 1.23e-07 | 10.54 % of cntrl | ~6.46e-07 | 1.1e-05 |  |  |
| O=C1CN2CCN(CC2)Cc2cccc(c2)Nc2nccc(n2)-c2ccc(nc2)NCC(O)CN1 (single isomer, unassigned) [Compound 25] | 7.76e-08 |  | 2.88e-06 | > 3.02e-05 | 6.36 |  |
| O=C1CN2CCN(Cc3cccc(c3)Nc3nccc(n3)-c3ccc(nc3)NCCCN1)C(CO)C2 (single isomer, unassigned) [Compound 47] | 8.32e-08 | 7.88 % of cntrl | < 3.02e-08 | 4.57e-06 |  |  |
| O=C1CN2CCN(Cc3cccc(c3)Nc3nccc(n3)-c3ccc(nc3)NCCCN1)C(CO)C2 (single isomer, unassigned) [Compound 48] | 4.27e-08 | 3.34 % of cntrl | 5.5e-06 | > 3.02e-05 |  |  |
| CN1CCCN(C)c2ccc(cn2)-c2ccnc(n2)Nc2cccc(c2)CN2CCN(CC1=O)CC2CO (single isomer, unassigned) [Compound 52] | 3.98e-07 |  | 9.12e-07 | > 3.02e-05 | 12.8 |  |
| CN1CCCN(C)c2ccc(cn2)-c2ccnc(n2)Nc2cccc(c2)CN2CCN(CC1=O)CC2CO (single isomer, unassigned) [Compound 53] | 2.75e-07 | 13.15 % of cntrl | 3.39e-08 |  |  | <4.52 |
| CC1CN2CCN1Cc1cccc(c1)Nc1nccc(n1)-c1ccc(nc1)NCCCNC(=O)C2 (single isomer, unassigned) [Compound 61] | 4.47e-08 | 6.78 % of cntrl | 1.32e-06 | > 3.02e-05 |  |  |
| CC1CN2CCN1Cc1cccc(c1)Nc1nccc(n1)-c1ccc(nc1)NCCCNC(=O)C2 (single isomer, unassigned) [Compound 62] |  | 166.89 % of cntrl | 7.76e-08 | 2.04e-06 |  |  |
| O=C1CN2CCN(CC2)Cc2cccc(c2)Nc2nccc(n2)-c2ccc(nc2)N2CC(O)CC2CCN1 (single isomer, unassigned) [Compound 89] | 4.68e-08 |  | ~6.31e-06 | > 3.02e-05 | 13.6 |  |
| O=C1CN2CCN(CC2)Cc2cccc(c2)Nc2nccc(n2)-c2ccc(nc2)N2CC(O)CC2CCN1 (single isomer, unassigned) [Compound 90] | 2.09e-07 | 15.81 % of cntrl | 9.33e-06 | > 3.02e-05 |  |  |
| O=C1CN2CCN(CC2)Cc2cccc(c2)Nc2nccc(n2)-c2ccc(nc2)N2CC(O)CC2CCN1 (single isomer, unassigned) [Compound 91] | 5.13e-06 |  | 1.17e-08 | 1.41e-06 |  |  |
| CN1CCN(C)c2ccc(cn2)-c2ccnc(n2)Nc2cccc(c2)CN2CCNC(C2)C1=O (stereo not shown) [Compound 68] | 7.76e-07 |  | 2e-05 |  | 28.4 |  |
| CN1CCN(C)c2ccc(cn2)-c2ccnc(n2)Nc2cccc(c2)CN2CCN(C)C(C2)C1=O (stereo not shown) [Compound 69] | 2.24e-06 |  | > 3.02e-05 |  | 22.8 |  |
| CN1CCCN(C)c2ccc(cn2)-c2ccnc(n2)Nc2cccc(c2)CN2CCNC(C2)C1=O (stereo not shown) [Compound 74] | 4.79e-07 |  | 2.04e-05 |  | 20.7 |  |
| CN1CCCN(C)c2ccc(cn2)-c2ccnc(n2)Nc2cccc(c2)CN2CCN(CC2)C1=O [Compound 76] | 3.47e-07 |  | 2.34e-07 |  | 8.71 |  |

Results, then the molecule that gave them:

| IC50 [1] [M] | VPS34_1microM_% of cntrl [1] | IC50 (EF2K [2]) [M] | IC50 (EF2K [3]) [M] | remaining activity at 1 µM [1] [%] | eEF2K_C_PThr56 pIC50 (EF2K [3]) | Compound |
| --- | --- | --- | --- | --- | --- | --- |
| 3.47e-07 |  | 8.32e-07 | > 3.02e-05 | 18.8 |  | CN1CCCN(C)c2ccc(cn2)-c2ccnc(n2)Nc2cccc(c2)CN2CCN(CC1=O)C(CO)C2 (single isomer, unassigned) [Compound 95] |
| 1.32e-07 |  | 6.76e-09 | 1.26e-06 |  |  | O=C1CN2CCN(CC2)Cc2cccc(c2)Nc2nccc(n2)-c2ccc(nc2)N2CC(O)CC2CCN1 (single isomer, unassigned) [Compound 96] |
| 1.51e-06 |  | 2.4e-06 | > 3.02e-05 |  |  | CN1CCCN(C)c2ccc(cn2)-c2ccnc(n2)Nc2cccc(c2)CN2CCN(CC1=O)CC2COCCN1CCOCC1 (single isomer, unassigned) [Compound 99] |
|  |  | 6.46e-08 | 1.48e-05 | 43 |  | CN1CCCN(C)c2ccc(cn2)-c2ccnc(n2)Nc2cccc(c2)CN2CCN(CC1=O)CC2COCCN1CCOCC1 (single isomer, unassigned) [Compound 100] |
| 3.02e-07 |  | 1.78e-05 | > 3.02e-05 | 25.1 |  | CN1CCCN(C)c2ccc(cn2)-c2ccnc(n2)Nc2cccc(c2)CN2CCN(CC1=O)CC2COCCO (single isomer, unassigned) [Compound 104] |
| 9.77e-07 | 28.59 % of cntrl | 8.71e-08 | 1.78e-05 |  |  | CN1CCCN(C)c2ccc(cn2)-c2ccnc(n2)Nc2cccc(c2)CN2CCN(CC1=O)CC2COCCO (single isomer, unassigned) [Compound 105] |
| 1.66e-08 | 3.08 % of cntrl | 1.45e-07 | ~8.51e-06 |  |  | CC1CN2CCN1CC(=O)NCCCNc1ccc(cn1)-c1ccnc(n1)Nc1cccc(c1)C2 (single isomer, unassigned) [Compound 136] |
| 8.13e-08 | 8.17 % of cntrl | 1.95e-06 | > 3.02e-05 |  |  | CC1CN2CCN1CC(=O)NCCCNc1ccc(cn1)-c1ccnc(n1)Nc1cccc(c1)C2 (single isomer, unassigned) [Compound 137] |
|  |  | 1.78e-05 |  | 34.1 |  | CC(C)N1CCN(C(C)C)c2ccc(cn2)-c2ccnc(n2)Nc2cccc(c2)CN2CCN(CC2)CC1=O [Compound 121] |

— patent publication US10017509B2, “Macrocylic pyrimidine derivatives” (Janssen Pharmaceutica NV, priority 2014, dated 2018)
